Data taken from patent US9834564B2, “Substituted quinolines as PDE-10 inhibitors” (priority 2010, dated 2017).

Columns and labels:
[1] = molecular target: recombinant human PDE-10 enzyme (PDE-10A) (Homo sapiens (Human), UniProt Q9Y233); test: IMAP PDE Fluorescence Polarization assay, human PDE-10 inhibition (enzyme assay); type: biochemical; details: recombinant human PDE-10, fluorescein-labeled cAMP/cGMP substrate, 40 min at 37° C.
[2] = molecular target: HEK293 cells over-expressing PDE-10A (Homo sapiens (Human), UniProt Q9Y233); test: whole cell PDE-10 assay, intracellular cGMP in HEK293 cells over-expressing PDE-10A; type: cell-based; details: concentration elevating intracellular cyclic nucleotide 300% above baseline; HEK293 over-expressing PDE-10A, 30 min compound, 200 μM sodium nitroprusside 2 min
Sequence of HEK293 cells over-expressing PDE-10A (Q9Y233 whole entry): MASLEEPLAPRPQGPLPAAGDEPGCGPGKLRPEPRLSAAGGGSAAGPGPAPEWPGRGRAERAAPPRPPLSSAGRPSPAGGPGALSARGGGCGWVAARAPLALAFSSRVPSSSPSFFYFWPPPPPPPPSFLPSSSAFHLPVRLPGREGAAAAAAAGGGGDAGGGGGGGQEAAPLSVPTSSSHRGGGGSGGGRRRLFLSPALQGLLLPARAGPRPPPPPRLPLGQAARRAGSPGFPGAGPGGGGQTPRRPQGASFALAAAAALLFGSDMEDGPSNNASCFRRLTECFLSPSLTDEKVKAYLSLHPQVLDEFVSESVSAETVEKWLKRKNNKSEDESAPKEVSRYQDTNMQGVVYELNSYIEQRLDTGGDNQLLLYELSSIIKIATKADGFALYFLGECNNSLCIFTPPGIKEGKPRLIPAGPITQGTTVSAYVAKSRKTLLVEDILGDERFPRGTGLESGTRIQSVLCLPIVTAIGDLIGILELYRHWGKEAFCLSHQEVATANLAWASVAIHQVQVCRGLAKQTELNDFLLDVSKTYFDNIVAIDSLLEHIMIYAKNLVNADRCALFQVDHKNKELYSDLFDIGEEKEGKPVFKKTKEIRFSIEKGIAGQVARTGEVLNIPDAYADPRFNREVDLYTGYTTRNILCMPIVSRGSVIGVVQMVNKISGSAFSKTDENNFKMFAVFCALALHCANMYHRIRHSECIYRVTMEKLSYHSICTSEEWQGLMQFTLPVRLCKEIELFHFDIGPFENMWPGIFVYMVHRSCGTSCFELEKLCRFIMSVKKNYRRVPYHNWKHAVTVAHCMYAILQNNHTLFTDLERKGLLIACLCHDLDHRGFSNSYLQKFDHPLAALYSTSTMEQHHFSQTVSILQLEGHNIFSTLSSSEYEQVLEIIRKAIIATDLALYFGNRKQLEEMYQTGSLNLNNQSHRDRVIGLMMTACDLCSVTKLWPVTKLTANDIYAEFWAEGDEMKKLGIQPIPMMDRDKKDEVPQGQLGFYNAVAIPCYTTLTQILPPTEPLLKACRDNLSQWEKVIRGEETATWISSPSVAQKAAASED

Sequence of recombinant human PDE-10 enzyme (PDE-10A) (Q9Y233 whole entry): as above

Row | Compound | IC50 [1] | PDE-10 EC300 (μM) [2]
1 | c1ccc2nc(CCc3nc(-c4ccsc4)c[nH]3)cnc2c1 [Compound 73] | < 500 nM | ++++ (IC50 or EC300<0.5 μM ++++)
2 | Fc1ccccc1-c1c[nH]c(CCc2cnc3ccccc3n2)n1 [Compound 75] | < 500 nM | ++++ (IC50 or EC300<0.5 μM ++++)
3 | Fc1cccc(-c2c[nH]c(CCc3cnc4ccccc4n3)n2)c1 [Compound 76] | < 500 nM | ++++ (IC50 or EC300<0.5 μM ++++)
4 | Fc1cccc(-c2c[nH]c(CCc3cnc4ccccc4n3)n2)c1F [Compound 77] | < 500 nM | ++++ (IC50 or EC300<0.5 μM ++++)
5 | c1ccc(-n2ccc(CCc3cnc4ccccc4n3)n2)cc1 [Compound 79] | 500 to 1000 nM | ++ (1<IC50 or EC300<10 μM ++)
6 | O=c1oc(CCc2nc(-c3ccccc3)c[nH]2)nc2ccccc12 [Compound 82] | 1000 to 10000 nM | + (IC50 or EC300>10 μM +)
7 | c1ccc2nc(CCc3nc4c(ccc5ncccc54)[nH]3)cnc2c1 [Compound 102] | < 500 nM | ++ (1<IC50 or EC300<10 μM ++)
8 | c1ccc2c(c1)ccc1[nH]c(CCc3cnc4ccccc4n3)nc12 [Compound 103] | < 500 nM | + (IC50 or EC300>10 μM +)
9 | O=c1[nH]c(CCc2ncc(-c3ccccc3)o2)nc2ccccc12 [Compound 110] | > 10000 nM | + (IC50 or EC300>10 μM +)
10 | c1ccc(-c2c[nH]c(COc3cnc4ccccc4n3)n2)cc1 [Compound 120] | < 500 nM | ++ (1<IC50 or EC300<10 μM ++)
11 | c1ccc(-c2c[nH]c(OCc3cnc4ccccc4n3)n2)cc1 [Compound 123] | < 500 nM | ++ (1<IC50 or EC300<10 μM ++)
12 | c1ccc(-c2c[nH]c(Sc3cnc4ccccc4n3)n2)cc1 [Compound 124] | < 500 nM | ++ (1<IC50 or EC300<10 μM ++)
13 | Cc1ncc(C)n2nc(CCc3ccc4ccccc4n3)nc12 [Compound 125, 2-(2-(5,8-Dimethyl-[1,2,4]triazolo[1,5-a]pyrazin-2-yl)ethyl)quinoline] | < 500 nM | ++++ (IC50 or EC300<0.5 μM ++++)
14 | Cc1ncc(C)n2nc(CCc3cnc4ccccc4n3)nc12 [Compound 134] | < 500 nM | ++ (1<IC50 or EC300<10 μM ++)
15 | Cc1ncc(C)n2nc(CCc3ccc4ccc5ncccc5c4n3)nc12 [Compound 142] | < 500 nM | ++++ (IC50 or EC300<0.5 μM ++++)
16 | COc1nc2ccccc2nc1CCc1nc2c3cccnc3ccc2n1C [Compound 144] | < 500 nM | ++ (1<IC50 or EC300<10 μM ++)
17 | c1ccc2nc(CCc3nc4ccc5ncccc5n4n3)cnc2c1 [Compound 145] | 500 to 1000 nM | + (IC50 or EC300>10 μM +)
18 | c1ccc2nc(CCc3nc4ccc5ncccc5n4n3)ccc2c1 [Compound 146] | < 500 nM | ++++ (IC50 or EC300<0.5 μM ++++)
19 | Cn1c(CCc2ccc3ccccc3n2)nc2c3ncccc3ccc21 [Compound 155] | < 500 nM | +++ (0.5<IC50 or EC300<1 μM +++)
20 | Cc1cc(C)nc(CCc2nc3c4cccnc4ccc3n2C)n1 [Compound 193] | < 500 nM | ++++ (IC50 or EC300<0.5 μM ++++)
21 | Cc1ccc2nc(CCc3nc4c5cccnc5ccn4c3C)ccc2n1 [Compound 202] | < 500 nM | ++++ (IC50 or EC300<0.5 μM ++++)
22 | Cn1c(CCc2ccc3ncccc3n2)nc2c3cccnc3ccc21 [Compound 204] | < 500 nM | ++++ (IC50 or EC300<0.5 μM ++++)
23 | Cc1nc(CCc2nc3c4cccnc4ccc3n2C)nc(C)c1Cl [Compound 208] | < 500 nM | ++++ (IC50 or EC300<0.5 μM ++++)
24 | Cc1nc(CCc2nc3c4cccnc4ccc3n2C)nc2c1CCC2 [Compound 210] | < 500 nM | ++++ (IC50 or EC300<0.5 μM ++++)
25 | Cn1c(CCc2cnc3ccccc3n2)nc2c3c(ccc21)OCCO3 [Compound 211] | < 500 nM | ++++ (IC50 or EC300<0.5 μM ++++)
